A short description of test [1]: Competitive inhibition of rat intestinal maltase using maltose as substrate assessed as dissociation of enzyme-inhibitor complex at 0.1 to 1 mg/ml by Dixon plot analysis.
A short description of test [2]: Non-competitive inhibition of rat intestinal maltase using maltose as substrate assessed as dissociation of enzyme-substrate-inhibitor complex at 0.1 to 1 mg/ml by secondary plot analysis.

Each structure is given as a SMILES string.

Usually Ki stands for a dissociation constant, usually derived from enzyme kinetics or from competition with a known ligand.

As to `COc1cc([C@@H]2OC[C@@H]3[C@H]2CO[C@H]3c2ccc(O)c(OC)c2)ccc1O` [4-[(1S,3aR,4S,6aR)-4-(4-hydroxy-3-methoxyphenyl)tetrahydro-1H,3H-furo[3,4-c]furan-1-yl]-2-methoxyphenol], the Ki in test [1] worked out at 288 µM; in test [2], 1340 µM.

Source of the values: BindingDB's records for doi:10.1016/j.bmcl.2012.06.068 (Chulalongkorn University, 2012).
